Key:
BV-2 [1] = experiment: Anti-inflammatory activity against LPS-induced mouse BV-2 cells assessed as increase in cell viability preincubated with compound for 1 hrs followed by LPS stimulation and measured after 24 hrs by CCK-8 method; format: functional, cell-based; settings: dose 2.5-20 µM, time 25.0 hrs
BV-2 [2] = experiment: Anti-inflammatory activity in mouse BV-2 cells assessed as inhibition of LPS-induced NO production preincubated with compound for 1 hrs followed by LPS stimulation and measured after 24 hrs by Griess reagent based assay; format: functional, cell-based

| Structure (SMILES) | Activity (BV-2 [1]) | IC50 (BV-2 [2]) [µM] |
| --- | --- | --- |
| CCCCCC[C@@H]1O[C@]23O[C@H]1CC=C2C(=O)CC[C@H]3O | Dose-Dependent Effect | 8.9 |
| CCCCCC[C@H]1O[C@]23O[C@H]1CC[C@@H]2C(=O)CC[C@H]3O | Dose-Dependent Effect | 3 |
| CCCCCC[C@@H]1O[C@@]23CC[C@@H](O)C(=O)[C@H]2CC[C@@H]1O3 | Dose-Dependent Effect | 14 |

— ChEMBL document CHEMBL5321265, “Polyketides with Anti-Inflammatory Activity from Trichoderma koningiopsis, a Rhizosphere Fungus from the Medicinal Plant Polygonum paleaceum” (J Nat Prod, 2023)
